The record followed here is patent US8338420B1, “Treatment of Parkinson's disease and enhancement of dopamine signal using PDE 10 inhibitor” (Mitsubishi Tanabe Pharma Corporation, priority 2002, dated 2012).

The test deals with PDE10 (PDE10A). The test is described as follows: Measurement of PDE10 inhibitory activity (radiolabeled nucleotide PDE assay). It counts as biochemical, bovine. As to conditions: versus PDE1, 2, 3, 4, 5, 6, 7, 8, 9 and 11; IC50 value of 1/100 or less. The source says:
(1) Enzyme Preparation of PDE10 (PDE10A)
According to the methods described in Fujishige et al. (Fujishige et al., Eur. J. Biochem., vol. 266, pp. 1118-1127, 1999; and Mukai et al., Br. J. Pharmacol., vol. 111, pp. 389-390, 1994), the enzyme PDE10A was isolated and prepared as follows.
At first, corpus striatum was excised from bovine whole brain (Japanese Black Cattle, purchased from Tokyo Shibaura Zoki, co., Ltd.), and washed with ice-cold saline (0.9% sodium chloride). After the tissues were cut in a proper size, it was frozen by liquid nitrogen, and stored at −80° C. […]
The PDE assay was performed using the enzyme solution obtained in the above (1), and inhibitory activities of the compounds on PDE10 (PDE10A) were measured. […]
After the reaction was carried out while keeping the temperature at 37° C. for 30 minutes, the reaction was stopped by boiling the reaction mixture for 2 minutes, and further added thereto was 100 μl of snake venom (Crotalus atrox snake venom 1 mg/ml) and the temperature was kept at 37° C. for 30 minutes. […] Scintillation cocktail was added to each of the eluates, and the radioactivity was measured by scintillation counter. From them, PDE activity taking cAMP as a substrate (an activity to hydrolyze cAMP) was measured. […]

Consider `COc1ccc(-c2cc(N3CCCC3)nc(/C=C/c3nc(-n4ccnc4)c4ccccc4n3)n2)cc1OC` [Compound A, 2-{(E)-2-[4-(1-imidazolyl)-quinazolin-2-yl]}ethenyl-4-(3,4-dimethoxy)phenyl-6-(pyrrolidin-1-yl)pyrimidine], for which the “inhibitory activity on PDE10 as compared to other PDE families (selectivity)” value is listed as at least 100 times.
